Experimental data taken from publication PMC3537913 (Clinical cancer research : an official journal of the …, 2012).
Where a name gives a salt, the structure may show the parent alone.

Key:
[1] = Sorafenib first-dose pharmacokinetics in patients; type: in vivo, human; conditions: for CL/F (apparent oral clearance): first dose (day 1); for Ka: first dose; for Cmax / Tmax / half-life: human, plasma, po
[2] = Sorafenib and sorafenib N-oxide steady-state plasma concentrations, course 1; type: in vivo, human; conditions: for concentration at 7 day / concentration at 13 day / concentration at 21 day: human, plasma, oral
[3] = tested on: circulating endothelial cells (CECs); experiment: Six-color flow cytometry of blood; type: in vivo, human; conditions: day 21, p = 0.01
[4] = single-agent sorafenib, mean; cited from earlier work
[5] = pediatric phase I single agent study, cited from earlier work
[6] = human, in vivo, po
[7] = once daily by mouth, in the combination
clinical = conditions: human, in vivo, po, 50 mg/m2
[8] = in vivo, cited from earlier work
refractory solid tumors = conditions: cited from earlier work
[9] = sorafenib 90 mg/m^2 oral, n 11, median (range)
[10] = sorafenib 110 mg/m^2 oral, n 4, median (range)
[11] = sorafenib 90 mg/m^2 twice daily, n 13, median (range)
[12] = sorafenib 110 mg/m^2 twice daily, n 4, median (range)

In the case of `CNC(=O)c1cc(Oc2ccc(NC(=O)Nc3ccc(Cl)c(C(F)(F)F)c3)cc2)ccn1` [sorafenib, Sorafenib tosylate], the “CL/F (apparent oral clearance)” value [1, 9] is reported as 44 mL/min/m^2, the “CL/F (apparent oral clearance)” value [1, 10] is reported as 39 mL/min/m^2 and the Ka [1, 9] is reported as 0.10 (0.038 – 0.72) h^−1. The Ka [1, 10] was 0.093 (0.080 – 0.15) h^−1, the Cmax ([1]; 90 mg/m2) was 1100 ng/mL and the Tmax ([1]; 90 mg/m2) was 8.7 h. It also gave a half-life ([1]; 90 mg/m2) of 5.5 h, a Cmax ([1]; 110 mg/m2) of 1600 ng/mL and a Tmax ([1]; 110 mg/m2) of 11 h. For the same molecule, the half-life ([1]; 110 mg/m2) was 10 h, the concentration at 7 day ([2]; 90 mg/m^2 twice daily) was 3500 ng/mL and the concentration at 13 day ([2]; 90 mg/m^2 twice daily) was 2500 ng/mL. The concentration at 21 day ([2]; 90 mg/m^2 twice daily) was 4800 ng/mL, the concentration at 7 day ([2]; 110 mg/m^2 twice daily) was 3000 ng/mL and the concentration at 13 day ([2]; 110 mg/m^2 twice daily) was 2100 ng/mL. For the same molecule, the concentration at 21 day ([2]; 110 mg/m^2 twice daily) was 1600 ng/mL, the “correlation of sorafenib steady-state concentrations with CECs” value [3] was “inversely correlated” and the “metabolic conversion to sorafenib N-oxide, adult patients” value [4] was under 10%. The “metabolic conversion to sorafenib N-oxide, children with AML” value [4] was 33%, the “maximum tolerated dose (MTD)” value ([5]; twice daily) was 200 mg/m^2 and the “Grade 3 DLTs” value [5] was “elevated lipase, hyponatremia, hand-foot syndrome (HFS), rash, hypertension, and elevated ALT”. The objective responses [5] was “No objective responses were observed”.

With `CNC(=O)c1cc(Oc2ccc(NC(=O)Nc3ccc(Cl)c(C(F)(F)F)c3)cc2)cc[n+]1[O-]` [sorafenib N-oxide] the “Sorafenib N-oxide Ctrough Day 7” value [2, 11] was 0.50 (0.11 – 4.5) mg/L, the “Sorafenib N-oxide Ctrough Day 13” value [2, 11] was 0.54 (0.17 – 3.4) mg/L and the “Sorafenib N-oxide Ctrough Day 7” value [2, 12] was 0.57 (0.37 – 1.5) mg/L. The “Sorafenib N-oxide Ctrough Day 13” value [2, 12] was 0.37 (0.33 – 0.92) mg/L and the “Sorafenib N-oxide Ctrough Day 21” value [2, 12] was 0.40 (0.20 – 0.78) mg/L.

For `O=P1(N(CCCl)CCCl)NCCCO1` (stereo not shown) [cyclophosphamide, Cyclophosphamide], the “cyclophosphamide absorption rate constant” value [6] was 0.17 h⁻¹, the “cyclophosphamide apparent volume of distribution” value ([6]; 50 mg/m2) was 2.28 L/m^2 and the “recommended phase II dose, cyclophosphamide” value [7] was 50 mg/m^2. The “published mean AUC at 600 mg/m^2 relative to median AUC of this study” value (12-fold higher oral dosage, ref 34 versus this study) was ~ 11 times, the “BSA normalized apparent oral clearance in adults” value (assuming average adult body surface area of 1.73 m^2, from ref 33) was 3.57 L/h/m^2 and the AUC(0-inf) (clinical) was 62.5 µM·h. The “clearance after intravenous administration in children” value ([8]; iv) was 2.9-4.23 L/h/m^2 and the “mean apparent oral clearance in adults” value ([8]; po) was 6.18 L/h.

For “bevacizumab: VEGF-specific recombinant, humanized monoclonal antibody”, the dose-limiting toxicities (refractory solid tumors; in vivo) is listed as “no dose-limiting toxicities (DLTs) were observed” and the objective responses (refractory solid tumors; pediatric phase I, single agent) is listed as “No objective responses were observed”.
